Results as given in patent US20220386606A1, “SPECIFICALLY SUBSTITUTED 3-PHENYL-5-SPIROCYCLOPENTYL-3-PYRROLIN-2-ONES AND THEIR USE AS HERBICIDES” (Bayer Aktiengesellschaft, priority 2019, published 2022).

Assays:
ALOMY [1] = assay: Pre-emergence herbicidal action against ALOMY; format: in vivo, Alopecurus myosuroides; details: 320 g/ha, scored visually after 3 weeks vs untreated controls
Outline: (§1)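 Percent activity (0% = like control, 100% = dead) read visually after a 3-week greenhouse period. Application: aqueous WP or EC formulations sprayed onto soil covering sown seeds, water rate 600 to 800 L/ha with 0.2% wetting agent.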

AVEFA [2] = assay: Pre-emergence herbicidal action against AVEFA; format: in vivo, Avena fatua; details: 320 g/ha, scored visually after 3 weeks vs untreated controls
Outline: as §1

DIGSA [3] = assay: Pre-emergence herbicidal action against DIGSA; format: in vivo, Digitaria sanguinalis; details: 320 g/ha, scored visually after 3 weeks vs untreated controls
Outline: as §1

ECHCG [4] = assay: Pre-emergence herbicidal action against ECHCG; format: in vivo, Echinochloa crus-galli; details: 320 g/ha, scored visually after 3 weeks vs untreated controls
Outline: as §1

LOLRI [5] = assay: Pre-emergence herbicidal action against LOLRI (Table 8, titled post-emergence at 320 g/ha); format: in vivo, Lolium rigidum; details: table stands in the pre-emergence section
Outline: as §1

SETVI [6] = assay: Pre-emergence herbicidal action against SETVI; format: in vivo, Setaria viridis; details: 320 g/ha, scored visually after 3 weeks vs untreated controls
Outline: as §1

MATIN = assay: Pre-emergence herbicidal action against MATIN; format: in vivo; details: 320 g/ha
Text: (§2) Seeds of monocotyledonous and dicotyledonous weed plants and crop plants are laid out in sandy loam soil in wood-fiber pots and covered with soil. The compounds of the invention, formulated in the form of wettable powders (WP) or as emulsion concentrates (EC), are then applied to the surface of the covering soil as aqueous suspension or emulsion at a water application rate equating to 600 to 800 L/ha with addition of 0.2% wetting agent.
(§3) After the treatment, the pots are placed in a greenhouse and kept under good growth conditions for the trial plants. The damage to the test plants is scored visually after a test period of 3 weeks by comparison with untreated controls (herbicidal activity in percent (%): 100% activity=the plants have died, 0% activity=like control plants).

VIOTR = assay: Pre-emergence herbicidal action against VIOTR; format: in vivo, Viola tricolor; details: 320 g/ha
Outline: as §1

VERPE = assay: Pre-emergence herbicidal action against VERPE; format: in vivo, Veronica persica; details: 320 g/ha
Text: as §2, §3

ALOMY [7] = assay: Post-emergence herbicidal action against ALOMY; format: in vivo, Alopecurus myosuroides; details: 80 g/ha, visual assessment after about 3 weeks
Outline: (§4)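 Weeds and crops grown in sandy loam in the greenhouse, treated post-emergence at the one-leaf stage (2–3 weeks after sowing). WP or EC formulations sprayed as aqueous suspension/emulsion at 600–800 l/ha water with 0.2% wetting agent. Visual % activity scored after about 3 weeks versus untreated controls (100% = dead, 0% = like control).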

AVEFA [8] = assay: Post-emergence herbicidal action against AVEFA; format: in vivo, Avena fatua; details: 80 g/ha, visual assessment after about 3 weeks
Outline: as §4

DIGSA [9] = assay: Post-emergence herbicidal action against DIGSA; format: in vivo, Digitaria sanguinalis; details: 80 g/ha, visual assessment about 3 weeks after treatment vs untreated controls
Outline: as §4

ECHCG [10] = assay: Post-emergence herbicidal action against ECHCG; format: in vivo, Echinochloa crus-galli; details: 80 g/ha, visual assessment about 3 weeks after treatment vs untreated controls
Outline: as §4

LOLRI [11] = assay: Post-emergence herbicidal action against LOLRI; format: in vivo, Lolium rigidum; details: 80 g/ha, visual assessment about 3 weeks after treatment vs untreated controls
Outline: as §4

SETVI [12] = assay: Post-emergence herbicidal action against SETVI; format: in vivo, Setaria viridis; details: 80 g/ha, visual assessment about 3 weeks after treatment vs untreated controls
Outline: as §4

AMARE = assay: Pre-emergence herbicidal action against AMARE; format: in vivo, Amaranthus retroflexus; details: 320 g/ha
Outline: as §1

ABUTH = assay: Post-emergence herbicidal action against ABUTH; format: in vivo, Abutylon threophrasti; details: 80 g/ha, visual assessment about 3 weeks after treatment vs untreated controls
Method: Seeds of monocotyledonous and dicotyledonous weed and crop plants are laid out in sandy loam soil in wood-fiber pots, covered with soil and cultivated in a greenhouse under good growth conditions. 2 to 3 weeks after sowing, the test plants are treated at the one-leaf stage. The compounds of the invention, formulated in the form of wettable powders (WP) or as emulsion concentrates (EC), are then sprayed onto the green parts of the plants as aqueous suspension or emulsion at a water application rate equating to 600 to 800 l/ha with addition of 0.2% wetting agent. After the test plants have been left to stand in the greenhouse under optimal growth conditions for about 3 weeks, the action of the preparations is assessed visually in comparison to untreated controls (herbicidal action in percent (%): 100% activity=the plants have died, 0% activity=like control plants).

SMILES | Pre-emergence action against ALOMY in % (ALOMY [1]) [%] | Pre-emergence action against AVEFA in % (AVEFA [2]) [%] | Pre-emergence action against DIGSA in % (DIGSA [3]) [%] | Pre-emergence action against ECHCG in % (ECHCG [4]) [%] | Pre-emergence herbicidal action against LOLRI in % (LOLRI [5]) [%] | Pre-emergence action against SETVI in % (SETVI [6]) [%] | Pre-emergence action against MATIN in % (MATIN) [%] | Pre-emergence action against VIOTR in % (VIOTR) [%] | Pre-emergence action against VERPE in % (VERPE) [%] | Post-emergence action against ALOMY in % (ALOMY [7]) [%] | Post-emergence action against AVEFA in % (AVEFA [8]) [%] | Post-emergence action against DIGSA in % (DIGSA [9]) [%] | Post-emergence action against ECHCG in % (ECHCG [10]) [%] | Post-emergence action against LOLRI in % (LOLRI [11]) [%] | Post-emergence action against SETVI in % (SETVI [12]) [%] | Pre-emergence action against AMARE in % (AMARE) [%] | Post-emergence action against ABUTH in % (ABUTH) [%]
CC#Cc1cc(C)c(C2=C(OC(=O)OCC)C3(CCC(COC)C3)NC2=O)c(OC)c1 (stereo not shown) [Example P-55] | 100 | 80 | 100 | 100 | 100 | 100 | 90 | 100 | 80 | 100 | 100 | 100 | 100 | 100 | 100 |  | 
CC#Cc1cc(Br)c(C2=C(OC(=O)OCC)C3(CCC(COCC)C3)NC2=O)c(OC)c1 (stereo not shown) [Example P-05] | 100 | 100 | 100 | 100 | 100 | 100 | 90 | 100 | 80 | 100 |  | 100 | 100 | 100 | 100 | 100 | 
CC#Cc1cc(C)c(C2=C(O)C3(CCC(COCC)C3)NC2=O)c(F)c1 (stereo not shown) [Example I-35] | 100 |  | 100 |  | 100 | 100 |  | 100 |  | 100 | 80 | 100 | 100 | 100 |  | 90 | 80
CC#Cc1cc(F)c(C2=C(OC(=O)C(C)C)C3(CCC(COCC)C3)NC2=O)c(OC)c1 (stereo not shown) [Example P-64] | 100 | 80 | 100 | 90 | 100 | 100 |  |  |  | 100 | 80 | 100 | 100 | 100 | 100 |  | 80
C#CCOCC1CCC2(C1)NC(=O)C(c1c(C)cc(C#CC)cc1OC)=C2OC(=O)OCC (stereo not shown) [Example P-103] | 100 | 100 | 100 | 100 | 100 | 100 | 90 |  | 90 | 100 | 90 | 100 | 100 | 90 | 100 | 100 | 
C#CCOCC1CCC2(C1)NC(=O)C(c1c(C)cc(C#CC)cc1Cl)=C2O (stereo not shown) [Example I-78] | 100 | 90 | 100 | 100 | 100 | 100 | 80 | 100 | 90 | 100 | 80 | 90 | 90 | 90 | 100 | 100 | 
CC#Cc1cc(F)c(C2=C(OC(=O)OCC)C3(CCC(COCC)C3)NC2=O)c(OC)c1 (stereo not shown) [Example P-61] | 100 | 90 | 100 | 100 | 100 | 100 |  |  | 90 | 90 | 80 | 100 | 100 | 100 | 100 |  | 80
CC#Cc1cc(Br)c(C2=C(OC(=O)OCC)C3(CCC(COCC)C3)NC2=O)c(OC)c1 (stereo not shown) [Example P-01] | 100 | 100 | 100 | 100 | 100 | 100 | 80 | 100 | 100 | 100 |  | 100 | 100 | 100 | 100 | 100 | 
